Results reported in patent US12558399B2, “Isocyclosporin A for topical treatment of ocular diseases” (DOMPE' FARMACEUTICI S.P.A., priority 2021, dated 2026).

Legend:
TRPV3 = biological target: T1, TRPV3 (Homo sapiens, UniProt Q8NET8); experiment: FLIPR assay, TRPV3 inhibition; assay type: cell-based
T1 sequence (Q8NET8 1-790): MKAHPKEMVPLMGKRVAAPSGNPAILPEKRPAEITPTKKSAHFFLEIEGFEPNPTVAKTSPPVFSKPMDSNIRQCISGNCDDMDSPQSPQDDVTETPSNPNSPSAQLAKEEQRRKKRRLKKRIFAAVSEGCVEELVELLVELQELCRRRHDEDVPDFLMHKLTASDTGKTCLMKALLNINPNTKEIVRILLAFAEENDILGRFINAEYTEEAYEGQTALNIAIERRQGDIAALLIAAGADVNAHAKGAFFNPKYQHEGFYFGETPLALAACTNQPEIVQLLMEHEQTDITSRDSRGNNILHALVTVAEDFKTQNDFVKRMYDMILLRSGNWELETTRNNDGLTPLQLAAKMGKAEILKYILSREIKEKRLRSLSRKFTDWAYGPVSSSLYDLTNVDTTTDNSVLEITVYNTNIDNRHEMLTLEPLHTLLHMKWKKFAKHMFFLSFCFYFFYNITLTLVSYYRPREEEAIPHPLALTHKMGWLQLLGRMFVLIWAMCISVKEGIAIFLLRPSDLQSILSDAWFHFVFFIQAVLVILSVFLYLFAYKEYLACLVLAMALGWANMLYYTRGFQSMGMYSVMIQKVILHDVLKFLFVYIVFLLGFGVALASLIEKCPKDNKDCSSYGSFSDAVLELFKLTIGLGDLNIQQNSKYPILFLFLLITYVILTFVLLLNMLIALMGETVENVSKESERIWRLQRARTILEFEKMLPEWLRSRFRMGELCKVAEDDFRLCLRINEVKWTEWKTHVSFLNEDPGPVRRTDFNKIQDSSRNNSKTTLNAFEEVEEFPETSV
Excerpt: The FLIPR assay is used to screen ion channel targets using membrane permeable fluorescent dyes. In particular, ion channel targets with significant Ca permeability, produce an increase in intracellular calcium that can be measured using calcium-sensitive dyes (Michelle R. Arkin et al. FLIPR™ Assays for GPCR and Ion Channel Targets. Assay Guidance Manual [Internet]. Bethesda (MD): Eli Lilly & Company and the National Center for Advancing Translational Sciences; 2004).
(§1) TRPV3 is an ionic channel that plays an important role in itching and inflammation, which are two characterizing aspects of ocular surface diseases such as VKC and AKC.
(§2) In details, human TRP cells are trypsinized, counted and seeded in black, clear-bottomed 96 well plates at a density of 50,000 cells per well and incubated overnight. Next day, media is removed from cell plates and 25 μl assay buffer is added. Red membrane potential or Calcium 5 dye solution (10 μl) is added to the wells and incubated at 37° C. for 1 hour. TRPV3, TRPML2 and TRPC4 are tested using the membrane potential dye.
(§3) Dye solution is made up in assay buffer. Compound dilutions are performed in 100% DMSO or dH2O then transferred to intermediate dilutions (5% DMSO/assay buffer or 5% dH2O/assay buffer) for a short time (<10 minutes) just before adding to the cell plate.
The plates are placed in the FLIPR and fluorescence monitored every 1.52 seconds. After 20 seconds 10 μl of the appropriate standard agonist is added and the fluorescence monitored for 5 minutes at ex/em: 488 nm/510-570 nm.
Reference agonists and antagonists have been tested against each channel to check that the value is within the acceptable range in order to validate the assays.
Percentage activation and inhibition values of the test compound and reference compounds has been evaluated.

tear secretion = experiment: Tear secretion by modified Schirmer test in scopolamine-treated mice; assay type: in vivo; details: mouse, day 22 and day 25, compared between treated groups
Experimental: In details, 15 mice (N=5 per group) were randomly assigned at baseline to 3 groups and dry eye was induced by treatment with a subcutaneous injection protocol of 0.5 mg/0.2 ml scopolamine hydrobromide, as previously described (Yeh S et al. Invest Ophthalmol Vis Sci, 2003, 44 (1): 124-9). […] In the treatment groups, ten microliters of the test formulations were instilled in each mouse three times a day in both eyes starting at Day 1 after the first scopolamine injection for 25 days. The treatments were encoded, and the group allocation was blinded to the technician administering the treatment, and to the researcher assessing the outcome of the experiment. Group identification was uncovered at the end of the analysis. Tear secretion was also measured in all animals by modified Schirmer test at day 22 and at day 25, as described in Rossi S. et al. Arch Ital Biol. 2012 March; 150 (1): 15-21.

TRPML2 = biological target: T2, TRPML2 (Homo sapiens, UniProt Q8IZK6); experiment: FLIPR assay, TRPML2 inhibition; assay type: cell-based
T2 sequence (Q8IZK6 1-566): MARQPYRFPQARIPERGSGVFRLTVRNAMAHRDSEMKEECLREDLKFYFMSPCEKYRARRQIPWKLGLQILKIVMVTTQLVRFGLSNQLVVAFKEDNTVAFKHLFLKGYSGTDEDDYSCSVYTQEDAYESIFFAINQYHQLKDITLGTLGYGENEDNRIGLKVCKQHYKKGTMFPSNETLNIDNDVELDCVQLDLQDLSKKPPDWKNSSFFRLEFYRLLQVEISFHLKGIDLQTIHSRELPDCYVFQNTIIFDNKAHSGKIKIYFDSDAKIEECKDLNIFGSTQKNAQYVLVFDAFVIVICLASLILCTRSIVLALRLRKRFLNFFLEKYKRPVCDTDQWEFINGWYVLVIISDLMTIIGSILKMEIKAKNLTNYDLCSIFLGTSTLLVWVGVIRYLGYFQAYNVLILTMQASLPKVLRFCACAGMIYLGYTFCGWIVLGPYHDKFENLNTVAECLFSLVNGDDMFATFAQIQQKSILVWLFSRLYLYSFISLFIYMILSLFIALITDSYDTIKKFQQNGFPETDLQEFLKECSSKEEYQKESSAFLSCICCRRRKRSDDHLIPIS
Experimental: The FLIPR assay is used to screen ion channel targets using membrane permeable fluorescent dyes. […]
as §2, §3

TRPC4 = biological target: T3, TRPC4 (Homo sapiens, UniProt Q9UBN4); experiment: FLIPR assay, TRPC4 activation; assay type: cell-based; details: 30 μM
T3 sequence (Q9UBN4 1-977): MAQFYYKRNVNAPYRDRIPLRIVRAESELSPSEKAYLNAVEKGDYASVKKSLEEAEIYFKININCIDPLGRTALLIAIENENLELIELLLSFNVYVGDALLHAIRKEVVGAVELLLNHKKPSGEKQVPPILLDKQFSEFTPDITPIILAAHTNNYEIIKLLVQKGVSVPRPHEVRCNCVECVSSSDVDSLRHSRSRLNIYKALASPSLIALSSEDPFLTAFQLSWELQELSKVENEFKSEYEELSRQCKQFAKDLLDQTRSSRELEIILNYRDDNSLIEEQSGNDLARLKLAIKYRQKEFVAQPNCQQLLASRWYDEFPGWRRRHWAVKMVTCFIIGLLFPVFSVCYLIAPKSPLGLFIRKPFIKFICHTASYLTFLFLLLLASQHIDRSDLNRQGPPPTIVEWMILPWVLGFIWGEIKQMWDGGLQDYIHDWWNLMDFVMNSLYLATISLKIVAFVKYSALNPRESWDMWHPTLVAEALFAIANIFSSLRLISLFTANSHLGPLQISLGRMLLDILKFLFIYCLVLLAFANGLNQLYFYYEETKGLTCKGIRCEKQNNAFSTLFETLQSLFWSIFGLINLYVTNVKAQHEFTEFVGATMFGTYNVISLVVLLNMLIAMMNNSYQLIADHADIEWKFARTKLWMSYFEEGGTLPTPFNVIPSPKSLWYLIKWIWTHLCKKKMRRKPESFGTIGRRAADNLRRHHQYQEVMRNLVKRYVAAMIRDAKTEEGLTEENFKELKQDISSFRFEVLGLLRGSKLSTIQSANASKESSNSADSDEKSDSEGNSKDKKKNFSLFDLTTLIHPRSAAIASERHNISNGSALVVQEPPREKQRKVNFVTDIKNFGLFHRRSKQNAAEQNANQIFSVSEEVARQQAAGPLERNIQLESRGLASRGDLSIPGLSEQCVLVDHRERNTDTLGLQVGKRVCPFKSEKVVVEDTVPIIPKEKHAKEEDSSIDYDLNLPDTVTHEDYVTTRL
Experimental: The FLIPR assay is used to screen ion channel targets using membrane permeable fluorescent dyes.
as §1, §2, §3
After 20 seconds IsoCsA, CsA or standard agonist are added to the wells and the fluorescence monitored for 5 minutes at ex./em.

[1] = mouse, in vivo
eye of healthy rabbits = details: rabbit, in vivo
[2] = 56 μM, reference agonist, considered equal to 0%
[3] = 2 μM, agonist, considered equal to 0%

For `NCCOB(c1ccccc1)c1ccccc1` [2-APB, 2-aminoetoxy diphenyl borate], the “TRPV3 Inhibition % Mean” value (TRPV3; [2]) was 0%, the “TRPV3 Inhibition % n = 1” value (TRPV3; [2]) was 0% and the “TRPV3 Inhibition % n = 2” value (TRPV3; [2]) was 0%.

For isocyclosporin A, the tear secretion (tear secretion) was “significantly higher levels”, the “TRPV3 Inhibition % Mean” value (TRPV3; 30 μM) was 60.1% and the “TRPV3 Inhibition % n = 1” value (TRPV3; 30 μM) was 63.7%. For the same compound, the “TRPV3 Inhibition % n = 2” value (TRPV3; 30 μM) was 56.5%, the “ability to antagonize TRPV3 relative to cyclosporin A” value (TRPV3; 30 μM) was “more than 4 fold” and the “TRPML2 Inhibition % Mean” value (TRPML2; 30 μM) was 71.2%. For the same compound, the “TRPML2 Inhibition % n = 1” value (TRPML2; 30 μM) was 63.9%, the “TRPML2 Inhibition % n = 2” value (TRPML2; 30 μM) was 78.5% and the “ability to antagonize TRPML2 in comparison with cyclosporin A” value (TRPML2; 30 μM) was “more than double”. The “effect on activation of TRPC4” value (TRPC4) was “does not have any effect on activation of this channel”, the “mean level in Conjunctiva” value [1] was 20 ± 7 ng/mg and the “mean level in Cornea” value [1] was 15 ± 5 ng/mg. The “mean level in Intraocular tissues (combined)” value [1] was 2 ± 1 ng/mg, the “variability of tissue levels within different animals with the same treatment” value [1] was “significantly lower variability” and the “frequency of the winking” value (eye of healthy rabbits) was 5±1.

For `N.N.N.N.N.N.N.N.N.N.N.N.N.N.[Cl-].[Cl-].[Cl-].[Cl-].[Cl-].[Cl-].[O-2].[O-2].[Ru+3].[Ru+3].[Ru+4]` [RR, ruthenium red], the “TRPV3 Inhibition % Mean” value (TRPV3; 100 μM, reference antagonist) was 91.7%, the “TRPV3 Inhibition % n = 1” value (TRPV3; 100 μM, reference antagonist) was 90.2% and the “TRPV3 Inhibition % n = 2” value (TRPV3; 100 μM, reference antagonist) was 93.2%.

For `[Ca+2].[Cl-].[Cl-]` [CaCl2], the “TRPML2 Inhibition % Mean” value (TRPML2; [3]) was 0%, the “TRPML2 Inhibition % n = 1” value (TRPML2; [3]) was 0% and the “TRPML2 Inhibition % n = 2” value (TRPML2; [3]) was 0%.

In the case of `[Gd+3]` [Gd3, Gadolinium], the “TRPML2 Inhibition % Mean” value (TRPML2; 4 mM, antagonist) is reported as 89.6%, the “TRPML2 Inhibition % n = 1” value (TRPML2; 4 mM, antagonist) is reported as 88.2% and the “TRPML2 Inhibition % n = 2” value (TRPML2; 4 mM, antagonist) is reported as 90.9%.
